Results as given in US20200045956A1, “POLYPEPTIDE SPERM STABILISER FOR SEMEN USED IN ARTIFICIAL INSEMINATION” (UNIVERSIDAD DE LA FRONTERA, priority 2017, published 2020).

Test system: porcine spermatozoa
Assay: Progressive motility / viability of gametes incubated in fertilizing solution with FB-sp (CASA method, optical microscopy)
Assay type: cell-based
Description: A test of the progressive motility of gametes incubated in fertilizing solution added with the FB-sp bio-stabiliser polypeptide was performed. Progressive gametes are spermatozoa that have normal mobility capacity and are suitable for fertilizing.
It can be seen that the incubation of spermatozoa of porcine boars with FB-sp (●) (10 μM) preserves progressive motility up to 85% of spermatozoa for a period of 7 days, while the control (▪) without stabiliser decreases to a value of 70% on day 7, the difference increases over the days.

RPGLPVFSPL (Spermatic biostabilizer FB-sp) [polypeptide sperm stabiliser of 10 amino acids: Arg, Pro, Gly, Leu, Pro, Val, Phe, Ser, Pro, Leu]
progressive motility of spermatozoa preserved (FB-sp 10 μM, 17° C., period of 7 days, porcine boar spermatozoa): up to 85% | survival (extender with FB-sp added, after 7 days): over 65%
